One experiment has as its target EGFR L858R/T790M/C797S (Homo sapiens, UniProt P00533, C797S/L858R/T790M). The experiment can be described thus: Biochemical EGFR kinase assay (Lance Ultra TR-FRET), triple mutant L858R/T790M/C797S. To be noted: Km ATP; read-out: IC50 L858R/T790M/C797S (nM) Km ATP. In outline: (§1)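 In this biochemical assay, phosphorylation after a one-hour room-temperature reaction was detected with europium-labelled anti-phosphopeptide antibody at 2 nM final concentration.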

The target in another experiment is EGFR wildtype (Homo sapiens, UniProt P00533). Kind of experiment: Biochemical EGFR kinase assay (Lance Ultra TR-FRET), wildtype. To be noted: Km ATP; read-out: IC50 WT (nM) Km ATP. In outline: as §1
In general terms: TR-FRET usually uses a lanthanide donor and a delayed reading to cut background.

In the next experiment the target is EGFR del19/T790M/C797S (Homo sapiens, UniProt P00533, C797S/DEL746-750/T790M). Kind of experiment: Biochemical EGFR kinase assay (Lance Ultra TR-FRET), triple mutant del19/T790M/C797S. To be noted: Km ATP; read-out: IC50 del19/T790M/C797S (nM) Km ATP. In outline: as §1
The next experiment has as its target EGFR del19/C797S (Homo sapiens, UniProt P00533, C797S/DEL746-750). The experiment can be described thus: Biochemical EGFR kinase assay (Lance Ultra TR-FRET), double mutant del19/C797S. To be noted: Km ATP; read-out: IC50 del19/C797S (nM) Km ATP. In outline:
as §1

A further experiment has as its target EGFR L858R/C797S (Homo sapiens, UniProt P00533, C797S/L858R). The experiment can be described thus: Biochemical EGFR kinase assay (Lance Ultra TR-FRET), double mutant L858R/C797S. To be noted: Km ATP; read-out: IC50 L858R/C797S (nM) Km ATP. An outline of the steps: as §1

The source of these data is patent US12258328B2, “6-membered heteroaryl-containing aminopyridine compounds as EGFR inhibitors” (YUHAN CORPORATION, priority 2021, dated 2025).

Sequence of EGFR del19/T790M/C797S (P00533 with tags, fused parts or gaps DEL746-750/T790M/C797S): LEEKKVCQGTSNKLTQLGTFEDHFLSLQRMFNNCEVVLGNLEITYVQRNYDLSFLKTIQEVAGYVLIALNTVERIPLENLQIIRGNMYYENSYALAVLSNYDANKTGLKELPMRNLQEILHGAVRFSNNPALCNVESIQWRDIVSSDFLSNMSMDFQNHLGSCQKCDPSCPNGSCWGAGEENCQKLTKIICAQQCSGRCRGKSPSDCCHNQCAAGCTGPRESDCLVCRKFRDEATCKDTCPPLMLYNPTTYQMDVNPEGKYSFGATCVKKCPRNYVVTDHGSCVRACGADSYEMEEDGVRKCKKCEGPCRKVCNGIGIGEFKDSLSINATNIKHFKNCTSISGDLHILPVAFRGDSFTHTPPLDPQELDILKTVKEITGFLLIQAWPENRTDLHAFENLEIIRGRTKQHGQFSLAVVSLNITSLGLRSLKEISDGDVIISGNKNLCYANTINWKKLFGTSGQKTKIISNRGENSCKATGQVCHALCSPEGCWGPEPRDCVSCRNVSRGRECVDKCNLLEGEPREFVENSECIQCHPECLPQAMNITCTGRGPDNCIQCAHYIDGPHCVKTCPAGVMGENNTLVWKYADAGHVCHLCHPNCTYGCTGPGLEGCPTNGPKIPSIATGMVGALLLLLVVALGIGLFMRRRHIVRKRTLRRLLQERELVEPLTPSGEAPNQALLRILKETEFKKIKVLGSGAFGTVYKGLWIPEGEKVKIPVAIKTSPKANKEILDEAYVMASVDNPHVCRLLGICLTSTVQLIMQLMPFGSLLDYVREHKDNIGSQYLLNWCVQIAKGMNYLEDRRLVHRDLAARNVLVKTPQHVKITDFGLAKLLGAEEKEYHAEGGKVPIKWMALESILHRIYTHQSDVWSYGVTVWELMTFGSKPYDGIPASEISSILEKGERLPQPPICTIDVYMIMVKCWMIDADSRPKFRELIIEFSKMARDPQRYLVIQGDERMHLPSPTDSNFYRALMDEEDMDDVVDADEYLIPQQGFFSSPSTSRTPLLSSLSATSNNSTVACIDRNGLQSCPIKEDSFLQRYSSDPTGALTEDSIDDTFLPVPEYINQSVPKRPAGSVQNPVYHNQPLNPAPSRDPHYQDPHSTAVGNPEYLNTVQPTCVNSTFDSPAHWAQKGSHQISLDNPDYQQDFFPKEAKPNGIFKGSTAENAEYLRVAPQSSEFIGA
Sequence of EGFR del19/C797S (P00533 with tags, fused parts or gaps DEL746-750/C797S): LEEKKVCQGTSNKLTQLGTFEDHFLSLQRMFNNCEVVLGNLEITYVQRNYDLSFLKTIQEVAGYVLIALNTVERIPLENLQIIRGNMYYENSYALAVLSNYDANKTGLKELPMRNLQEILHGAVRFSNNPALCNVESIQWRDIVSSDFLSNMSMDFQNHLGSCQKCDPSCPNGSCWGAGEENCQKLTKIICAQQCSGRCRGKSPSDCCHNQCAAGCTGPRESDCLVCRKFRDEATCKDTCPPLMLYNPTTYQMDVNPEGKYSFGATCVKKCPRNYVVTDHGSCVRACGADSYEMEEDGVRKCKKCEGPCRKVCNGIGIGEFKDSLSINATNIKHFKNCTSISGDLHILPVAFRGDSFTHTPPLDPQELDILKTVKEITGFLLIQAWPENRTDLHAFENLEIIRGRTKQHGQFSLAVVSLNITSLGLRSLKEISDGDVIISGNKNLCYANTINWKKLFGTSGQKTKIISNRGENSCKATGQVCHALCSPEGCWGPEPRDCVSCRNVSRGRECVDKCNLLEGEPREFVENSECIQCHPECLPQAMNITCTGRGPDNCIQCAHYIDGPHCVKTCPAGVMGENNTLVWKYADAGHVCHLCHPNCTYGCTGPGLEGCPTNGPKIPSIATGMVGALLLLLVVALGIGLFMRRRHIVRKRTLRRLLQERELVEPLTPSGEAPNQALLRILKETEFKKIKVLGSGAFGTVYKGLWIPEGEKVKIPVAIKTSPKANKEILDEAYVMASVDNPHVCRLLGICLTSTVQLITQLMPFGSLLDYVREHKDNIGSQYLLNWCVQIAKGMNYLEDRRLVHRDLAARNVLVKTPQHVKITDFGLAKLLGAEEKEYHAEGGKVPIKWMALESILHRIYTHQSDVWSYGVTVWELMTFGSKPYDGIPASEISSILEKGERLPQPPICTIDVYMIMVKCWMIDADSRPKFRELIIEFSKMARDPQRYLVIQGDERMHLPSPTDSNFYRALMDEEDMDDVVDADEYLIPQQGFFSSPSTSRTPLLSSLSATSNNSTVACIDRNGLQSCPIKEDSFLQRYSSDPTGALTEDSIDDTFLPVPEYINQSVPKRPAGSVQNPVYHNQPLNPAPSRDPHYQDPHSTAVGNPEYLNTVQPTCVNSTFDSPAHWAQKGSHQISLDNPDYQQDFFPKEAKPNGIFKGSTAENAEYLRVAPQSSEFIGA
Sequence of EGFR wildtype (P00533 25-1210): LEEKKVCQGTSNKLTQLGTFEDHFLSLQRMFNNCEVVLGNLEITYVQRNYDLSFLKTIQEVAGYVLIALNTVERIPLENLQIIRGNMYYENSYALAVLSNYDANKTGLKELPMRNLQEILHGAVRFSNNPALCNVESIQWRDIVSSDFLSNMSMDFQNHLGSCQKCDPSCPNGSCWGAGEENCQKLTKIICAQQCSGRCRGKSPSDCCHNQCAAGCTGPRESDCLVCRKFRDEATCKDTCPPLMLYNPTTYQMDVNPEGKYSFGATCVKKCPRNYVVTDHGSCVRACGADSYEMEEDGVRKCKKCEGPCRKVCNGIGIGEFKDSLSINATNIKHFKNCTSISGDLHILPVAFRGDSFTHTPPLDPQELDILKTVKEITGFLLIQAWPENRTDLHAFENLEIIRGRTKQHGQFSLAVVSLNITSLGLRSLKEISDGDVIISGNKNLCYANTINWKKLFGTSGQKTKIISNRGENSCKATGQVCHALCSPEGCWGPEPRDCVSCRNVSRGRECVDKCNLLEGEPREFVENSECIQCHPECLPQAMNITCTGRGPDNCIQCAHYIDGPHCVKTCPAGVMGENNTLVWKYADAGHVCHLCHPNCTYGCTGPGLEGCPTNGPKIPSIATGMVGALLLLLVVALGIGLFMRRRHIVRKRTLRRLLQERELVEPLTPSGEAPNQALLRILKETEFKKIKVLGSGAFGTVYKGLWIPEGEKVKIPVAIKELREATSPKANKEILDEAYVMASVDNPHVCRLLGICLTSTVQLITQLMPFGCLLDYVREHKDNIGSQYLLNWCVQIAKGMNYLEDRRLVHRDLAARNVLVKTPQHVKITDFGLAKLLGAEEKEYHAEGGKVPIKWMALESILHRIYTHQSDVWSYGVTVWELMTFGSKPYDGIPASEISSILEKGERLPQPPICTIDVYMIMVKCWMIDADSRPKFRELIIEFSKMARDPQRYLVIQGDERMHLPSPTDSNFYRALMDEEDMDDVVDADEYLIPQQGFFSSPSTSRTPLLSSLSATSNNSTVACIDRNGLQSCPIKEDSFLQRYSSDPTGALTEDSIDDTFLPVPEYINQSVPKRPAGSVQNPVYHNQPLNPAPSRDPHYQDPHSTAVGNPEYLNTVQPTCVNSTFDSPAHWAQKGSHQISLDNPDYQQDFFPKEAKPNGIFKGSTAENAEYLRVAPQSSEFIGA
Sequence of EGFR L858R/C797S (P00533 25-1210 C797S/L858R): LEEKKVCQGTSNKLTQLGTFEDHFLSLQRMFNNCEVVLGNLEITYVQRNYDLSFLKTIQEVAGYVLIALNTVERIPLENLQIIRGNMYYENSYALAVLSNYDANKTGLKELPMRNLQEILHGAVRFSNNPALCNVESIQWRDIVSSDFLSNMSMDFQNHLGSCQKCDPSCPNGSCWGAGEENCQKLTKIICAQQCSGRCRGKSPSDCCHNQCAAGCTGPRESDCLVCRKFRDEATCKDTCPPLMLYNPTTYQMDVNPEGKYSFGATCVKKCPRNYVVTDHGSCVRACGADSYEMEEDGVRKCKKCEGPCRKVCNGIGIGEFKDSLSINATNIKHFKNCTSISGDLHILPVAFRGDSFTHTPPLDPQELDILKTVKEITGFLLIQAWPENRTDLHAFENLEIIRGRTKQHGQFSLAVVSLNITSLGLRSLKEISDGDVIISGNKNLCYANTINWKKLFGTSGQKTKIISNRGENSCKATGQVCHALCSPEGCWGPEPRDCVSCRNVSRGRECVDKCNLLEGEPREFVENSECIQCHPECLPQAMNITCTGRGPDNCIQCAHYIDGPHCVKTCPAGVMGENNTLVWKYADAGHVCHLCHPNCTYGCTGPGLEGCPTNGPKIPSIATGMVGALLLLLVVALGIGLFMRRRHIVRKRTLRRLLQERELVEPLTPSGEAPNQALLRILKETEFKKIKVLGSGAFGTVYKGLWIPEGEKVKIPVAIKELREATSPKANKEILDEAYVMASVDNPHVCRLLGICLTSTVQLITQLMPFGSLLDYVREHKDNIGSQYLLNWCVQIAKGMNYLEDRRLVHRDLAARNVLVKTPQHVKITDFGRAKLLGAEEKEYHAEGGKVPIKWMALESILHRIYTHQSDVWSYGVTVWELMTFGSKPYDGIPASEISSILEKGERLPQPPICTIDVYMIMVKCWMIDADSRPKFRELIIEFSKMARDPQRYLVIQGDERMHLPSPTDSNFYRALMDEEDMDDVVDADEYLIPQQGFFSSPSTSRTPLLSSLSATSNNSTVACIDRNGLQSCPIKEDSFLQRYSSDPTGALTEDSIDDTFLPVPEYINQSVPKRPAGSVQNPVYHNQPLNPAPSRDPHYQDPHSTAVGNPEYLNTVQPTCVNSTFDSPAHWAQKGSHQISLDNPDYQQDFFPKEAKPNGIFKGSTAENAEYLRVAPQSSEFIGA

On to `C[C@]1(O)CC[C@@H](Nc2cc(Nc3ccnc(-c4cnn(S(=O)(=O)C5CC5)c4)n3)ncc2-c2cc(OC(F)F)ccn2)CC1` [Example 331, (1s,4s)-4-((6′-((2-(1-(Cyclopropylsulfonyl)-1H-pyrazol-4-yl)pyrimidin-4-yl)amino)-4-(difluoromethoxy)-[2,3′-bipyridin]-4′-yl)amino)-1-methylcyclohexan-1-ol], for which the IC50 on EGFR L858R/T790M/C797S was found to be 0.7 nM; at EGFR wildtype, 17.4 nM; at EGFR del19/T790M/C797S it was 1.9 nM; at EGFR del19/C797S it was 3.5 nM; at EGFR L858R/C797S, 2.4 nM.

With `C[C@]1(O)CC[C@@H](Nc2cc(Nc3ccnc(-c4cnn(S(=O)(=O)C5CC5)c4)n3)ncc2-c2ccc(OC(F)F)cn2)CC1` [Example 332, (1s,4s)-4-((6′-((2-(1-(Cyclopropylsulfonyl)-1H-pyrazol-4-yl)pyrimidin-4-yl)amino)-5-(difluoromethoxy)-[2,3′-bipyridin]-4′-yl)amino)-1-methylcyclohexan-1-ol], the IC50 was 0.7 nM on EGFR L858R/T790M/C797S; 21 nM at EGFR wildtype; 1.6 nM on EGFR del19/T790M/C797S; 2.4 nM at EGFR del19/C797S; 1.8 nM on EGFR L858R/C797S.

Regarding `C[C@]1(O)CC[C@@H](Nc2cc(Nc3ccnc(-c4cnn(S(=O)(=O)C5CC5)c4)n3)ncc2-c2ncccc2OCC(F)(F)F)CC1` [Example 333, (1s,4s)-4-((6′-((2-(1-(Cyclopropylsulfonyl)-1H-pyrazol-4-yl)pyrimidin-4-yl)amino)-3-(2,2,2-trifluoroethoxy)-[2,3′-bipyridin]-4′-yl)amino)-1-methylcyclohexan-1-ol], the IC50 on EGFR L858R/T790M/C797S was determined as 2.6 nM; at EGFR wildtype, 117 nM; on EGFR del19/T790M/C797S it was 4.1 nM; at EGFR del19/C797S, 460 nM; on EGFR L858R/C797S, 795 nM.

Turning to `C[C@]1(O)CC[C@@H](Nc2cc(Nc3ccnc(-c4cnn(S(=O)(=O)C5CC5)c4)n3)ncc2-c2ncccc2OCC(F)F)CC1` [Example 334, (1s,4s)-4-((6′-((2-(1-(Cyclopropylsulfonyl)-1H-pyrazol-4-yl)pyrimidin-4-yl)amino)-3-(2,2-difluoroethoxy)-[2,3′-bipyridin]-4′-yl)amino)-1-methylcyclohexan-1-ol], the IC50 at EGFR L858R/T790M/C797S is 1.4 nM; on EGFR wildtype, 189 nM; on EGFR del19/T790M/C797S it was 2.1 nM; at EGFR del19/C797S, 170 nM; at EGFR L858R/C797S, 191 nM.

On to `COc1c(F)ccnc1-c1cnc(Nc2ccnc(-c3cnn(S(=O)(=O)C4CC4)c3)n2)cc1N[C@H]1CC[C@@](C)(O)CC1` [Example 335, (1s,4s)-4-((6′-((2-(1-(Cyclopropylsulfonyl)-1H-pyrazol-4-yl)pyrimidin-4-yl)amino)-4-fluoro-3-methoxy-[2,3′-bipyridin]-4′-yl)amino)-1-methylcyclohexan-1-ol], for which the IC50 on EGFR L858R/T790M/C797S is 2.6 nM; at EGFR wildtype, 248 nM; at EGFR del19/T790M/C797S it was 5.8 nM; at EGFR del19/C797S, 1840 nM; on EGFR L858R/C797S, 1780 nM.

Consider `COc1c(F)ccnc1-c1cnc(Nc2ccnc(-c3cnn(CC(F)F)c3)n2)cc1N[C@H]1CC[C@@](C)(O)CC1` [Example 336, (1s,4s)-4-((6′-((2-(1-(2,2-Difluoroethyl)-1H-pyrazol-4-yl)pyrimidin-4-yl)amino)-4-fluoro-3-methoxy-[2,3′-bipyridin]-4′-yl)amino)-1-methylcyclohexan-1-ol], for which the IC50 on EGFR L858R/T790M/C797S was 43.9 nM; on EGFR wildtype, 235 nM; on EGFR del19/T790M/C797S, 345 nM; at EGFR del19/C797S, 3820 nM; on EGFR L858R/C797S, 1670 nM.
